Legend:
[1] = test system: C8166; assay: Compound was evaluated for its cytotoxicity against C8166 cell line; type: functional; conditions: Homo sapiens, read-out: TC50 (the source's name)
[2] = test system: C8166; assay: Tested against HIV-1 […] for Inhibition of viral replication by determining reduction of syncytia formation and antigen gp120 in C8166 cells, estimated by ELISA; type: functional, cell-based; conditions: Homo sapiens

Compound | CC50 [1] [µM] | EC50 [2] [µM]
CC(C)=CCN1Cc2cc(Cl)cc3[nH]c(=S)n(c23)C[C@@H]1C | 62 | –
C=CCOn1c(C=C)nc2ccc(C)cc21 | 20 | 16
CC(C)=CCOn1c(C=C(C)C)nc2ccc(C)cc21 | 50 | 10
C=CCOn1c(C=C)nc2ccc(OC)cc21 | 80 | 80
C=CCOn1c(C=C)nc2c(C)cccc21 | 16 | 16
COc1ccc2nc(C=C(C)C)n(OCC=C(C)C)c2c1 | 80 | 16
CCCCCCCOn1c(CCCCCC)nc2c(C)cccc21 | – | 40
CCOn1c(C)nc2c(C)cccc21 | – | 8
CCCCOn1c(CCC)nc2c(C)cccc21 | – | 0.5
CCCCCOn1c(CCCC)nc2c(C)cccc21 | – | 8
CC(C)=CCOn1c(C=C(C)C)nc2c(C)cccc21 | 50 | 10
Cc1cn([C@H]2C[C@H](N=[N+]=[N-])[C@@H](CO)O2)c(=O)[nH]c1=O [ZIDOVUDINE] | > 1000 | –

From ChEMBL document CHEMBL1151996, “Structure-activity relationships of anti-HIV-1 N-alkoxy- and N-allyloxy-benzimidazoles” (Bioorg Med Chem Lett, 1997)
